Laboratory results reported in article PMC12794188, “Maternal–Fetal Transfer and Toxicokinetics of 2,2′,5,5′-Tetrachlorobiphenyl, [^14C]-PCB52, Following Intratracheal Administration” (Chemical Research in Toxicology, 2025).
Where “and” joins values, the source holds several entries; their conditions need not be identical. Equal values may be shown once.

Legend:
[1] = Pulmonary uptake, exhalation and excretion (mass balance) after intratracheal [14C]-PCB52; format: in vivo, Sprague–Dawley rats
Experimental: Female Sprague–Dawley rats (8 weeks old) weighing 237–269.7 g (mean = 247.5 g) (Envigo RMS, LLC, Indianapolis, IN) were used for this study. All animal experiments were performed following the protocols evaluated and approved by the University of Iowa Institutional Animal Care and Use Committee (approval number 3091097). After arrival, the animals were acclimated for 7 days. The animals were housed in a light and temperature-controlled environment with ad libitum access to food and water during quarantine and throughout the study. Timed pregnancy was achieved by harem mating. , Briefly, one male and two female rats were placed together in the evening and checked for vaginal plug the following day. If vaginal plug was present, the male was removed from the breeding cage, and the gestation day 0 (GD 0), 0-day post coitum was assigned. Pregnancies were confirmed by ultrasound scan at GD 9. The dams were exposed at GD 11 (±1 day) to capture the period of early organogenesis and hormonal function, which falls within week 3 of human embryonic development. ,− On the day of the experiment, pregnant rats were intratracheally administered an average of 40 μg (range, 35–45 μg) of [^14C]-PCB52 in 100 μL of exposure solution. Although the dose used in this study exceeded the tolerable daily intake (TDI) of PCBs for healthy individuals, which is 1.6 μg per day for an individual weighing 80 kg, the use of higher acute doses has been established in toxicological studies intended for risk assessment. The intratracheal instillation method was chosen for administering [^14C]-PCB52 to represent inhalation exposures, capture exhaled concentration, and efficiently utilize the limited availability of the cost-intensive radiolabeled PCB52. , Although inhalation exposure would better represent real-world exposures to airborne LC-PCBs, it would not allow us to accurately measure the amount of PCB52 exhaled into the air after exposure and is experimentally infeasible. […] All intratracheal instillations were done under light anesthesia, achieved using a 4% isoflurane concentration via a Fortec vaporizer (Cyprane, Keighley, UK). The animals recovered from anesthesia within 1 min. Subsequently, the animals were housed within a cylindrical glass chamber measuring 2 L in volume, equipped with glass drainage mechanisms to facilitate urine collection and a metallic screen to segregate urine from feces (as in Figure S1). Air was drawn from the chamber at 6.0 L/min through a cartridge containing the XAD-2 polymeric resin to capture any exhaled [^14C]-PCB52. For periods longer than 24 h postexposure, exposed dams were placed in a metabolic cage, which was fitted with a cartridge containing XAD-2 to capture exhaled [^14C]-PCB52 as in other end points.
Maternal blood, urine, and feces samples were collected immediately before and at 0.21, 1.67, 12, 24, 48, and 96 h after lung dosing. The exposed dams were euthanized using 4% isoflurane, followed by cervical dislocation and exsanguination via a cardiac puncture. Euthanasia was consistently performed during the light cycle. Dams’ fur was wiped and analyzed for radioactivity. Using the retro-orbital blood collection method, 0.5–1.5 mL ([…] of an exposed pregnant rat’s body weight) of blood sample was collected from each of the dams until the individual dams were necropsied for whole-body tissue harvesting. At the end of the exposure period, the chamber’s interior walls were rinsed separately with water and acetone/hexane (25 – 45 mL) and wiped to measure residues. From the collected whole blood samples, 100 μL were aliquoted into three vials each, and the remaining blood was allowed to clot at room temperature before being centrifuged to yield serum. The placentas, developing fetuses, and whole-body tissue samples were harvested immediately before exposure and at 0.21, 1.67, 12, 24, and 96 h postexposure. […]

[2] = Literature half-life of PCB52 following intravenous administration in male rats (Pu et al.); conditions: rat, in vivo, concentration–time data of Pu et al., read-out: half-life when Pu et al. data are fitted to a two-compartmental PK model
[3] = Metabolite extraction and analysis: parent PCB52 and metabolite fractions in tissues and urine after intratracheal [14C]-PCB52; format: in vivo, Sprague–Dawley rats; conditions: for PCB52 share of radioactivity over time / unmetabolized PCB52 share of radioactivity over time: over the 96 h period; for parent PCB52 share of radioactivity: maternal serum
From the text: A complex mixture of confirmed and putative metabolites of PCBs has been reported in the literature. To quantify the metabolites of PCB52 in maternal serum, the developing fetus, liver, brain, lung, and adipose tissue in this study, we employed a series of liquid–liquid extractions with solvents of increasing polarity to separate phenolic, methyl sulfones, and glucuronate/sulfated metabolites. , Recovery experiments used available standards including parent PCB52, 4-OH-PCB52, 3-MeSO2-PCB52, and 4-MeSO2-PCB52 metabolites in biological samples. The levels of the parent compound PCB52 and its extractable metabolites in the samples were determined using a validated liquid scintillation counting method coupled with gas chromatography-electron capture detection (GC-ECD), following our previous protocol. , Individual extractable metabolite was separated using a series of liquid–liquid extractions, employing a graded array of solvents with incrementing polarity to facilitate the partitioning of the analytes according to their inherent lipophilic characteristics (Figure S4). Subsequently, individual fractions were classified into respective categories, including the parent PCB moiety, hydroxylated PCBs (OH-PCBs), methyl sulfonyl PCBs (MeSO2–PCBs), conjugated metabolites, and unextractable components.
Tissue samples (200–400 mg wet weight) were prepared for analysis through a two-step homogenization using 2 mL of hexane/acetone solvent (50% vol/vol). The resultant solution was centrifuged, and then the pellet underwent two successive extractions with 1.5 mL of dichloromethane (DCM), chloroform/methanol (50:50 vol/vol), methanol/water (50:50 vol/vol), and water, respectively. The supernatant from the DCM extraction contained hydroxylated metabolites, whereas the top fractions from the methanol/water extraction had conjugated PCB metabolites. The resultant supernatant from the hexane/acetone extraction was rinsed with Milli-Q water, then extracted with a 0.5 M potassium hydroxide (KOH) solution in 50% ethanol, and triple rinsed with 400 μL of hexane. The hydrophobic fraction was further purified by rinsing with 1 M hydrochloric acid (400 μL). Simultaneously, a plausible MeSO2–PCBs fraction was extracted with 500 μL of anhydrous DMSO, followed by triple hexane rinses (3 × 400 μL). The residual hydrophobic phase was quantified as native PCB52. The quantification of cold PCB52, OH-PCBs (as MeO-PCB derivatives), and MeSO2-PCBs standards in spiked samples was initially performed on a gas chromatograph (Agilent 6890N) equipped with a 63Ni μ-ECD detector and SLB-5MS capillary column (60 m × 0.25 mm I.D., 0.25 μm film thickness; Supelco, St Louis, MO). Subsequently, individual separated fractionation from [^14C]-PCB52-exposed tissue samples was transferred to a prepared scintillation vial, followed by the addition of 10 mL of cocktail solution and analysis by scintillation counter. Any quantifiable radioactivity in the residual pellet was treated as unextractable compounds.

Clc1ccc(Cl)c(-c2cc(Cl)ccc2Cl)c1 [PCB52, 2,2′,5,5′-Tetrachlorobiphenyl]
dose retained ([1]; after 96 h): 41.1% | elimination through feces ([1]; at 96 h postexposure): 42.5% | elimination through urine ([1]; at 96 h postexposure): 14.5% | total elimination ([1]; at 96 h postexposure): 58.9% | exhaled proportion of the administered dose ([1]; by 96 h postexposure): 1.33 ± 0.51% | average lung uptake (administered dose distributed to the systemic circulation) ([1]; intratracheal administration): 99.4 ± 0.5% and 99.40 ± 0.51% | half-life [2]: 36 to 48 h | PCB52 share of radioactivity over time ([3]; adipose tissue): 66.0 to 96.8% | unmetabolized PCB52 share of radioactivity over time ([3]; brain): 74.4 to 60.2% | PCB52 share of radioactivity over time ([3]; fetal tissues): 54.1 to 27.7% | unmetabolized PCB52 share of radioactivity over time ([3]; liver): 64.0 to 37.3% | parent PCB52 share of radioactivity ([3]; 0.21 h): 69.4% | parent PCB52 share of radioactivity ([3]; 96 h): 6.8% | PCB52 share of radioactivity over time ([3]; placenta): 67.8 to 28.6% | parent compound in urine ([3]; urine): no detectable parent compound
